According to PubChem BioAssay AID743076:

System: P. falciparum blood stage, IPP rescue, flow cytometry 72 h
Test: apicoplast-targeting antimalarials identified by IPP supplementation – P. falciparum blood stage, mechanism study for antimalarial apicoplast targeting (AID 743076)
Details: at 5 µM; stronger effect = higher value

Structure (SMILES): O=C(O)C1Cc2c([nH]c3ccccc23)C(c2ccc(Cl)cc2Cl)N1 (stereo unspecified)
- parasitemia ratio IPP rescue/non-rescue: 6.32
